Source: article PMC7725785, “TRIB3 promotes MYC-associated lymphoma development through suppression of UBE3B-mediated MYC degradation” (Nature Communications, 2020)
Where a SMILES comes first, the peptide text is derived from it. The star is where a group is joined. Cbz = O=C(OCc1ccccc1)*

Experiments:
MYC ubiquitination = assay: UBE3B-mediated MYC ubiquitination in HEK 293T cells with GSK3 inhibitor; type: cell-based; settings: GSK3 inhibitor 10 µM for 12 hr, Co-IP, result in words
Description: HEK 293T cells were cotransfected with Myc-tagged MYC, HA-tagged or Flag-tagged ubiquitin, and other indicated plasmids. Cells were pretreated for 6 h with MG132 (Sigma Aldrich, C2211) at a concentration of 20 μM, and cell extracts were prepared using lysis buffer containing 1% TX-100 supplemented with 1 mg/ml iodoacetamide. We used a monoclonal anti-HA Affinity Gel (Bimake.com, B23302) or a ubiquitin antibody (CST, #3933S, 5 μg/IP) to purify ubiquitinylated proteins. Precipitates were analyzed by immunoblot with an anti-MYC antibody (CST, #9402 S, 1:1000).
Suppleme n t a ry F i g ur e 4 . U B E3 B I n d uc e d MYC Ubiquitina tion a t Lys ine 4 27 . Re la te d to Fig. 3 . […]
(d) The direct interaction of UBE3B and MYC in the purified system. […] HEK 293T cells were transfected with th e indicated mutants of MYC, and the ubiquitination of MYC was detected by Co -IP assays. […] HEK 293T cells were transfected with the indicated mutants of MYC, and the ubiquitination of MYC was detected by Co-IP assays. […] HEK 293T cells were transfected with the indicated mutants of MYC, and the degradation of MYC was detected by western blotting. […]
Raji cells were transfected with the indicated siRNAs and plasmids, and the ubiquitination of MYC was detected by Co-IP assays. […] Th e MY C protein was detected by Western blot analysis with GAPDH as a loading control. […] The MYC ubiquitination was detected by Co-IP assays . […]

[1] = test system: MYC protein in Raji cells; assay: MYC degradation in control or TRIB3-deleted Raji cells with CHX or CHX plus MG132; type: cell-based, human; settings: result in words
Description: Co-IP experiments were performed as described previously. Briefly, cells were collected and lysed for 30 min on ice. Soluble lysates were incubated with the indicated antibodies at 4 °C overnight, followed by incubation with Protein A/G Plus-Agarose (Santa Cruz Biotechnology, TX, USA) at 4 °C for 2 h. Soluble lysates were incubated with the indicated Anti-Myc magnetic beads (Bimake.com, B26302), Anti-Flag Affinity Gel (Bimake.com, B23102) or Anti-HA Affinity Gel (Bimake.com, B23302) at 4 °C overnight. Immunocomplexes were separated from the beads and then boiled for 10 min. The precipitated proteins were subjected to SDS-PAGE and blotted with specific antibodies. For immunoblotting assays, proteins were extracted from cells, spleens, or lymphoma tissues using RIPA buffer (Cell Signaling Technology, MA, USA). A BCA Protein Assay Kit was used to determine protein concentrations. Protein extracts were separated by SDS-PAGE, transferred onto PVDF membranes, and subjected to immunoblot analysis. Western blot images were captured by a Tanon 5200 chemiluminescent imaging system (Tanon, Shanghai, […]). Human lymphoma and benign LN paraffin tissue microarrays were purchased from US Biomax (LM482a).

[2] = test system: Myc^EμCre^ERT2Trib3^F/+ mice; assay: Survival of Myc^EμCre^ERT2Trib3^F/+ mice treated with vehicle or tamoxifen (induced Trib3 deletion); type: in vivo, mouse
Description: NOD-scid IL2Rg^null (NSG) mice (4–6 weeks old, male) were purchased from the Nanjing Biomedical Research Institute of Nanjing University (Nanjing, China). Trib3-knockout (Trib3^loxP/loxP, Trib3^F/F) mice (5–6 weeks old, male) were generated as described in our previous study (Li et al.[18]). Cre^ERT2 (B6. Cg-Tg(CAG-cre/Esr1*)5Amc/J) mice (5–6 weeks old, 1 male and 2 females) (The Jackson Laboratory, 004682) were obtained from The Jackson Laboratory (CA, USA). When Cre^ERT2 transgenic mice bred with mice containing loxP-flanked sequences, tamoxifen-inducible Cre-mediated recombination results in deletion of the floxed sequences in widespread cells/tissues of the offspring. Cre^Lck (B6. Cg-Tg(Lck-cre)548Jxm/J) mice (5–6 weeks old, 1 male and 2 females; The Jackson Laboratory, 003802), and Cre^CD19 (B6.129P2(C)-Cd19tm1(cre)Cgn/J) mice (5–6 weeks old, 1 male and 2 females; The Jackson Laboratory, 006785) were obtained from the Shanghai Research Center for Model Organisms (Shanghai, China). B6.129P2-Lyz2tm1(cre)/Nju (LysM-Cre) mice(5–6 weeks old, 1 male and 2 females; N000056) were obtained from Model Animal Resource Information Platform. […] Deletion of Trib3 was corroborated by quantitative PCR and immunoblot analysis. […]

MAX protein = assay: SPR kinetic interaction of α-helical peptides (CM1-CM4) with MAX; type: binding; settings: result in words
Description: (§1) Binding kinetics between MYC and UBE3B, TRIB3 and the indicated α helical peptides, MAX and the indicated α helical peptides, or MYC and MAX were analyzed using a BIAcore T200 instrument (GE Healthcare, CA, USA) as described previously. Briefly, binding reactions were performed in HBS-EP buffer (GE Healthcare) at pH 7.4. TRIB3/MYC/MAX protein was coated on the flow cell of a CM5 sensor chip by direct immobilization. Another flow cell, not coated with an immobilized protein, was used to evaluate nonspecific binding. The binding analyses were performed at a flow rate of 25 μl/min at 25 °C. A total of 0–200 nM peptide or 0–500 nM TRIB3 protein was passed over the surface of the sensor chip. The association rate constant (Ka) and the dissociation rate constant (Kd) were calculated according to the BIA evaluation software. The dissociation constant (KD) was determined by Kd/Ka.

TRIB3 protein = target: T1, TRIB3 protein (Homo sapiens, UniProt Q96RU7); assay: SPR kinetic interaction of α-helical peptides (CM1-CM4) with TRIB3; type: binding; settings: result in words
T1 construct: GST; purchased Sinobiological Inc. 10731-H09B
T1 sequence (Q96RU7 1-358): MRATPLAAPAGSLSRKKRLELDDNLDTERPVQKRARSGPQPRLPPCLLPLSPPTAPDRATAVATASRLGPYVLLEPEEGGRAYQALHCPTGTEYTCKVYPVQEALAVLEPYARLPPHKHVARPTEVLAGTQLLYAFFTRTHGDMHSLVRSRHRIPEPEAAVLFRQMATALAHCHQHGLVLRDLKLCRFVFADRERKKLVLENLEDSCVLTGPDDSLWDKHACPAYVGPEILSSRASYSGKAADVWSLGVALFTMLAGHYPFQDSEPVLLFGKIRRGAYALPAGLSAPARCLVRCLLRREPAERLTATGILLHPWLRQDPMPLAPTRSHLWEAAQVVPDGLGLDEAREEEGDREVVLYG
Description: as §1

MAX and MYC = assay: SPR kinetic interaction of MAX and MYC proteins with indicated peptides (CM1-CM4); type: binding; settings: result in words
Description: as §1

TRIB3 and MYC = assay: SPR kinetic interaction of TRIB3 and MYC proteins with or without CM4; type: binding; settings: in vitro, result in words
Description: as §1

Row | Molecule | ability to bind MAX (MAX protein) | binding affinity for TRIB3 (TRIB3 protein) | effect on the binding of MYC and MAX (MAX and MYC) | other results
1 | Cc1c[nH]c(-c2cnc(NCCNc3ccc(C#N)cn3)nc2-c2ccc(Cl)cc2Cl)n1 [CT99021] |  |  |  | UBE3B-mediated MYC ubiquitination (MYC ubiquitination): decreased
2 | CC(C)C[C@@H](C=O)NC(=O)[C@H](CC(C)C)NC(=O)[C@H](CC(C)C)NC(=O)OCc1ccccc1 [MG132] (Cbz-Leu-Leu-Leu-aldehyde) |  |  |  | effect on the shortened MYC half-life induced by TRIB3 knockdown [1]: reversed
3 | CC/C(=C(\c1ccccc1)c1ccc(OCCN(C)C)cc1)c1ccccc1 [Tamoxifen, tamoxifen] |  |  |  | survival of lymphoma mice ([2]; tamoxifen 250 mg/kg i.p. (induces Trib3 deletion), result in words): none of the tamoxifen-treated Myc^Eμ Cre^ERT2Trib3^F/+ mice died within 180 days; Survival status at day 180 (0: alive, 1: dead) ([2]; tamoxifen 250 mg/kg, status of individual mice at Day 180, Fig 1k source data): 0
4 | ERQRRNELKRSFFALR [CM1, α-helical peptide derived from C terminus (HLH domain) of MYC] | showed a high ability to bind MAX | only CM4 displayed a high binding affinity | decreased the binding of MYC and MAX | 
5 | KVVILKKATAYILSV [CM2, α-helical peptide derived from C terminus of MYC] | not | only CM4 displayed a high binding affinity | not | 
6 | LRKERQRLEKQLHK [scramble peptide of CM4, reference compound] |  |  |  | effect on the binding affinity of TRIB3 and MYC (TRIB3 and MYC): not
7 | QAEEQKLISEEDLLR [CM3, α-helical peptide derived from C terminus of MYC] | not | only CM4 displayed a high binding affinity | not | 
